Test results published in ChEMBL document CHEMBL4373738, “Search for new multi-target compounds against Alzheimer's disease among histamine H3 receptor ligands” (Eur J Med Chem, 2020).
Activity calls are given as the source filed them. No cut-off for these calls is given here.

Columns and labels:
[1] = biological target: Acetylcholinesterase (Electrophorus electricus) (UniProt O42275); experiment: Inhibition of electric eel AChE using acetylthiocholine iodide as substrate at 10 uM preincubated with enzyme for 5 mins prior to substrate addition measured after 5 mins by Ellman's method relative to control
Acetylcholinesterase (Electrophorus electricus), sequence (O42275 24-633 limits assumed): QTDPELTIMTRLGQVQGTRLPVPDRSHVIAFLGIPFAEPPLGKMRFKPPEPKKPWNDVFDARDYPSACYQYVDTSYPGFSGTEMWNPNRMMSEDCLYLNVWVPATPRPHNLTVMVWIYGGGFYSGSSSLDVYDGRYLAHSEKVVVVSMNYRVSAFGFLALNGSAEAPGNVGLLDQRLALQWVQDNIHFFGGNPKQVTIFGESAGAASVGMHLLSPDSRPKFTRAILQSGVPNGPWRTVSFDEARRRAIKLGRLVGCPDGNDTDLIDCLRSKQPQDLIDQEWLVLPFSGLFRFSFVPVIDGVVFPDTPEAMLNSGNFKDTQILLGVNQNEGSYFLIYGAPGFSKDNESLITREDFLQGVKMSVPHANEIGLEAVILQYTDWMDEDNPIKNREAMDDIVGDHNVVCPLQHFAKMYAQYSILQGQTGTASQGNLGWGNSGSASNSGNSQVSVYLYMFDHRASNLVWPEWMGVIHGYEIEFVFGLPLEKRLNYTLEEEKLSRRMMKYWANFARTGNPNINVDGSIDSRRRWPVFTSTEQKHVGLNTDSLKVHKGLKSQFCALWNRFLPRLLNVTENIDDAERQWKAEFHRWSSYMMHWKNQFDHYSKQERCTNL

[2] = biological target: Cholinesterase (Equus caballus) (UniProt P81908); experiment: Inhibition of equine serum BChE using butyrylthiocholine iodide as substrate at 10 uM preincubated with enzyme for 5 mins prior to substrate addition measured after 5 mins by Ellman's method relative to control
Cholinesterase (Equus caballus), sequence (P81908 whole entry): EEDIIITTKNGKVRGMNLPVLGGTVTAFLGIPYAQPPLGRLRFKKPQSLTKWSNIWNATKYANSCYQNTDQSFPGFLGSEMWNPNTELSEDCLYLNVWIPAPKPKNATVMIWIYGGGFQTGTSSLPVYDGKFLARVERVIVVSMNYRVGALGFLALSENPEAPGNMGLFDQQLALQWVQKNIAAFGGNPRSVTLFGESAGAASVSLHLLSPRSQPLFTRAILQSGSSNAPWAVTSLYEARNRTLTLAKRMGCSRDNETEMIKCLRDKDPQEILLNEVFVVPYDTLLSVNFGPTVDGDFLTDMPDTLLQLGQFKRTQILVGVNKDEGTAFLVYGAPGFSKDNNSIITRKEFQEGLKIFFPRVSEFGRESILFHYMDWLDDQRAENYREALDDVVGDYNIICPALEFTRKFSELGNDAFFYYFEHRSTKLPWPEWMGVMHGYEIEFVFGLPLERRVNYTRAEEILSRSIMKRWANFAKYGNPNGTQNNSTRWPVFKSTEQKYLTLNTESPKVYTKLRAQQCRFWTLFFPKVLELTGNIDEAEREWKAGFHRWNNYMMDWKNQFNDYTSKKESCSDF

[3] = biological target: T1, Histamine H3 receptor (Homo sapiens, UniProt Q9Y5N1); experiment: Displacement of [3H]-N-alpha-methylhistamine from human histamine H3 receptor stably expressed in HEK293 cell membrane after 90 mins
T1 sequence (Q9Y5N1 whole entry): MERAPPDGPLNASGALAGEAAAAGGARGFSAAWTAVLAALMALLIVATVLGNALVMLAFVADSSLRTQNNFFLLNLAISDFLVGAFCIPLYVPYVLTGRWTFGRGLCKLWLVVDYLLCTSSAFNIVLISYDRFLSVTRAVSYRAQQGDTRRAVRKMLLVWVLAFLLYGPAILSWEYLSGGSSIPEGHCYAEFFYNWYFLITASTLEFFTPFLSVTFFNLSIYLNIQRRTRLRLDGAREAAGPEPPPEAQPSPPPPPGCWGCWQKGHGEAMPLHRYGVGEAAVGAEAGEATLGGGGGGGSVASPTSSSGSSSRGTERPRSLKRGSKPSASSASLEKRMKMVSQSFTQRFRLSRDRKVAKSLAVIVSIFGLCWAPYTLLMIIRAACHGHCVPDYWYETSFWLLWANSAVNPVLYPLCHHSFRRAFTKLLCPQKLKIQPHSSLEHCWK

[4] = biological target: T2, Cholinesterase (Equus caballus, UniProt P81908)
T2 sequence (P81908 whole entry): as the sequence (P81908 whole entry) above
Description: Inhibition of equine serum BChE using butyrylthiocholine iodide as substrate preincubated with enzyme for 5 mins prior to substrate addition measured after 5 mins by Ellman's method

[5] = biological target: T1, Histamine H3 receptor; experiment: Displacement of [125I]Iodoproxyfan from human histamine H3 receptor stably expressed in CHOK1 cells after 60 mins; assay type: cell-based
[6] = biological target: T3, Acetylcholinesterase (Electrophorus electricus, UniProt O42275); experiment: Inhibition of electric eel AChE using acetylthiocholine iodide as substrate preincubated with enzyme for 5 mins prior to substrate addition measured after 5 mins by Ellman's method
T3 sequence (O42275 whole entry): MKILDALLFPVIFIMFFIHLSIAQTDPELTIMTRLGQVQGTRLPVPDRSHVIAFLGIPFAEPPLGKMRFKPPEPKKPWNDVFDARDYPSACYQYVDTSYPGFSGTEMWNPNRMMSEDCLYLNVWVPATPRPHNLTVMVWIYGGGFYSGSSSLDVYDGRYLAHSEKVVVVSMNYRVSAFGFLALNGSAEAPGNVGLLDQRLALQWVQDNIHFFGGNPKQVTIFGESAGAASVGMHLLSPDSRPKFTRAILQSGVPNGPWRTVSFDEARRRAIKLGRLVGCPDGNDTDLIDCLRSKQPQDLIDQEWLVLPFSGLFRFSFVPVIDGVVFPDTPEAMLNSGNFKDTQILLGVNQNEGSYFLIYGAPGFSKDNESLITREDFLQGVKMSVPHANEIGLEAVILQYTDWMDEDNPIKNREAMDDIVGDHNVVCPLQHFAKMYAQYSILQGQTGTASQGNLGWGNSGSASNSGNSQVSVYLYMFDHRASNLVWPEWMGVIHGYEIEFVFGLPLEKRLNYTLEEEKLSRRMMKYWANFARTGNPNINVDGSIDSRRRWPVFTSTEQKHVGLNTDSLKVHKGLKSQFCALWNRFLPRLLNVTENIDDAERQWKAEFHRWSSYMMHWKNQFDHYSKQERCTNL

[7] = biological target: T4, Acetylcholinesterase (Homo sapiens, UniProt P22303); experiment: Inhibition of recombinant human AChE using acetylthiocholine iodide as substrate preincubated with enzyme for 5 mins prior to substrate addition measured after 5 mins by Ellman's method
T4 sequence (P22303 whole entry): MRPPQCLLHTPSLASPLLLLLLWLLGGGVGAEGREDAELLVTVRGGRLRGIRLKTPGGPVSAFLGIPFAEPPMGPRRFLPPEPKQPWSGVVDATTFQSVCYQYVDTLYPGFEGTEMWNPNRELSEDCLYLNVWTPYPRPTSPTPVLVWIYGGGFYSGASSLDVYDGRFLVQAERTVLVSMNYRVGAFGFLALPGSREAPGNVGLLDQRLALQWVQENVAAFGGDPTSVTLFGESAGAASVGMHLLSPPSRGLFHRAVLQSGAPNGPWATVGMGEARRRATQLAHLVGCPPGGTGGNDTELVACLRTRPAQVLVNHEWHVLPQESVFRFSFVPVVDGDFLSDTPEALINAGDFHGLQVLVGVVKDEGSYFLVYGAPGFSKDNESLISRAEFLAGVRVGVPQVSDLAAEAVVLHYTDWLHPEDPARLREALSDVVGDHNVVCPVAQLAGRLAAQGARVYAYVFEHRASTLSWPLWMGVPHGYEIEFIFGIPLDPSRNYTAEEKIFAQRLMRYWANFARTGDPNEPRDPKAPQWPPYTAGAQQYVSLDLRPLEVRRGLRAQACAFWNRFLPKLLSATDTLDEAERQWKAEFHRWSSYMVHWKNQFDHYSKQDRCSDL

[8] = biological target: T3, Acetylcholinesterase; experiment: Non-competitive inhibition of electric eel AChE using acetylthiocholine iodide as substrate by Lineweaver-Burk plot analysis
[9] = biological target: T2, Cholinesterase; experiment: Non-competitive inhibition of equine serum BChE using butyrylthiocholine iodide as substrate by Lineweaver-Burk plot analysis
[10] = biological target: T1, Histamine H3 receptor; experiment: Displacement of [125I]Iodoproxyfan from human histamine H3 receptor stably expressed in HEK293 cells after 60 mins; assay type: cell-based
[11] = biological target: T4, Acetylcholinesterase; experiment: Non-competitive inhibition of recombinant human AChE using acetylthiocholine iodide as substrate by Lineweaver-Burk plot analysis
[12] = biological target: T4, Acetylcholinesterase; experiment: Non-competitive inhibition of recombinant human AChE using acetylthiocholine iodide as substrate by Cornish-Bowden plot analysis

| Compound | inhibition [1] [%] | inhibition [2] [%] | Ki [3] [nM] | IC50 [4] [nM] | Ki [5] [nM] | IC50 [6] [nM] | other results |
| --- | --- | --- | --- | --- | --- | --- | --- |
| Clc1ccc(CCCOCCCN2CCCCC2)cc1 | 3.04 | 55.7 | – | – | – | – | – |
| CCc1ccc(OCCCCCCN2CCC(C)CC2)cc1 | 23.5 | 75.1 | 181 | 3920 | – | – | – |
| C(=C\c1ccccc1)/CN1CCN(CCCOCCCc2ccccc2)CC1 | 0 | 37.8 | – | – | 690 | – | – |
| Cc1ccc2oc(-c3ccc(OCCCCCCN4CCCCCC4)cc3)cc(=O)c2c1 | 95.9 | 99.5 | 160 | 440 | – | 460 | IC50 [7]: 480 nM; Ki [8]: 176 nM; Ki [9]: 281 nM |
| c1ccc(CCCOCCCN2CCN(Cc3ccccc3)CC2)cc1 | 18.8 | 33.9 | – | – | > 1000 | – | – |
| CC1CCCN(CCCCCCOc2ccc3c(c2)C(=O)CC(c2ccccc2)O3)C1 (centres undefined) | 91.5 | 90.3 | 523 | 1900 | – | 800 | – |
| O=C(c1ccc(OCCCN2CCN(C/C=C/c3ccccc3)CC2)cc1)C1CC1 | 8.85 | 38.4 | – | – | 83 | – | – |
| Cc1ccc2oc(-c3ccc(OCCCCCCN4CCCC(C)C4)cc3)cc(=O)c2c1 (centres undefined) | 94 | 99.4 | 60 | 1090 | – | 800 | – |
| CCOc1ccccc1N1CCN(CCCOCCCc2ccccc2)CC1 | 3.36 | 46 | – | – | > 1000 | – | – |
| O=C(c1ccc(OCCCN2CCN(c3ccccc3)CC2)cc1)C1CC1 | 7.58 | 11.2 | – | – | – | – | Ki [10]: 111 nM |
| Cc1ccc2oc(-c3ccc(OCCCCCCN4CCCCC4)cc3)cc(=O)c2c1 | 95.6 | 99.6 | 228 | 760 | – | 500 | IC50 [7]: 360 nM; Ki [11]: 129 nM; inhibition [12]: Active |
| O=C(c1ccccc1Cl)N1CCN(CCCOCC2CCC2)CC1 | 0 | 0 | – | – | > 1000 | – | – |
| CCc1ccc(OCCCCCCN2CCCCCC2)cc1 | 30.8 | 85.7 | 84.3 | 1900 | – | – | – |
